Assay results as given in patent US20100298371A1, “PROCESS FOR PREPARING CHEMICALLY AND CHIRALLY PURE SOLIFENACIN BASE AND ITS SALTS” (priority 2007, published 2010).
Counter-ions that a name gives are not always drawn. Like-named read-outs stand apart in the source and are kept apart here.

Assays:
[1] = Pharmacokinetic profile of Solifenacin salts in fasted male Wistar rats; type: in vivo; details: for absorption / rate of absorption: compared to the succinate salt
[2] = Stability study on storage (40° C. ± 2° C./75% ± 5% RH); type: physicochemical
Description: The complete x-ray powder spectrum, was recorded with a Rigaku D/Max 2200 VPC X-ray powder diffractometer model using copper radiation. The X-ray diffraction pattern was recorded by keeping the instrument parameters as below: • X-ray: Cu/40 kv/30 mA, Diverging slit: 1°, Scattering slit: 1°, Receiving slit: 0.15 mm, Monochromator RS: 0.8 mm, Counter: Scintillation counter,
Solifenacin base and its salts were analyzed for purity by analytical HPLC at λ^max 220 nm using column J'sphere-ODS, 150 mm×4.6 mm×4μ or its equivalent on AGILENT 1100 series under the following conditions, • Detector: UV absorption photometer Wave length: 220 nm Column temp.: 30° C. • Flow rate: 1.0 mL/min. Injection Vol.: 5 μL • Mobile Phase (gradient elution): 0.05 TFA buffer in water:Acetonitrile
Several of the Solifenacin salts prepared according to the present invention has chemical and polymorphic stability on storage.

[3] = Intrinsic dissolution rate of various salts of Solifenacin; type: physicochemical
[4] = Table 3b, fasted male Wistar rats, dose 30 mg/kg, mean
[5] = Table 3a, fasted male Wistar rats, dose 30 mg/kg, mean
[6] = After 3 Month at 40° C. ± 2° C./75% ± 5% RH
[7] = Table 3b, fasted male Wistar rats, dose 30 mg/kg, mean, hydrochloride salt
[8] = Table 3b, fasted male Wistar rats, dose 30 mg/kg, mean, succinate salt
[9] = fasted male Wistar rats, ratio to succinate

| Molecule | AUC (0-inf) [1, 4] | AUC (0-t) [1, 4] | Cmax [1, 4] | Tmax [1, 4] | Description [2, 6] | Polymorphism XRD [2, 6] | Purity (By HPLC) [2, 6] | Water (by KFR) [2, 6] | Description ([2]; Initial) | Polymorphism XRD ([2]; Initial) | Purity (By HPLC) ([2]; Initial) | Water (by KFR) ([2]; Initial) | Kel [1, 4] | T1/2 [1, 4] | also measured |
| --- | --- | --- | --- | --- | --- | --- | --- | --- | --- | --- | --- | --- | --- | --- | --- |
| O=C(O[C@H]1CN2CCC1CC2)N1CCc2ccccc2[C@@H]1c1ccccc1.O=C1O[C@H]([C@@H](O)CO)C(O)=C1O [Solifenacin Ascorbate] | 96.99 ng·h/mL | 85.66 ng·h/mL | 29.04 ng/mL | 1.30 h |  |  |  |  |  |  |  |  |  |  | absorption / rate of absorption ([1]; in words): faster; better absorption than the succinate salt ([1]; relative to succinate): 20% |
| O=C(O)c1cc(O)ccc1O.O=C(O[C@H]1CN2CCC1CC2)N1CCc2ccccc2[C@@H]1c1ccccc1 [Solifenacin Gentisate, (+)-(1S,3′R)-quinuclidin-3′-yl 1-phenyl-1,2,3,4-tetrahydro-isoquinoline-2-carboxylate gentisate salt] | 74.19 ng·h/mL | 58.97 ng·h/mL | 30.66 ng/mL | 1.70 h | Off white colored | No Change | 99.46% | 0.29% | Off white colored powder | Crystalline pattern | 99.63% | 0.16% |  |  | AUC (0-inf) [1, 5]: 74.19 ng·h/mL; AUC (0-t) [1, 5]: 58.97 ng·h/mL; Cmax [1, 5]: 30.66 ng/mL; Tmax [1, 5]: 1.70 h; peak plasma concentrations compared with Solifenacin succinate ([1]; in words): comparable; Intrinsic dissolution rate ([3]; pH 1.2 HCl): 6.845 mg/min · cm^2; Intrinsic dissolution rate ([3]; pH 4.5 Acetate Buffer): 0.2356 mg/min · cm^2; Intrinsic dissolution rate ([3]; pH 6.8 Phosphate Buffer): 0.4932 mg/min · cm^2 |
| O=C(O[C@H]1CN2CCC1CC2)N1CCc2ccccc2[C@@H]1c1ccccc1 [Solifenacin Hydrobromide, Solifenacin hydrobromide] |  |  |  |  |  |  |  |  |  |  |  |  |  |  | Tmax ([1]; Table 3b, fasted male Wistar rats, dose 30 mg/kg, mean, hydrobromide): 1.27 h; AUC (0-inf) ([1]; male, Wistar, rat, plasma, 30 mg/kg, Table 3b, fasted male Wistar rats, dose 30 mg/kg, mean, read-out: AUC (0-inf)): 74 ng·h/mL; AUC (0-t) ([1]; male, Wistar, rat, plasma, 30 mg/kg, Table 3b, fasted male Wistar rats, dose 30 mg/kg, mean, read-out: AUC (0-t)): 59.9 ng·h/mL; Cmax ([1]; male, Wistar, rat, plasma, 30 mg/kg, Table 3b, fasted male Wistar rats, dose 30 mg/kg, mean, read-out: Cmax): 14.1 ng/mL |
| O=C(O[C@H]1CN2CCC1CC2)N1CCc2ccccc2[C@@H]1c1ccccc1 [Solifenacin Hydrochloride, (+)-(1S,3′R)-quinuclidin-3′-yl 1-phenyl-1,2,3,4-tetrahydro-isoquinoline-2-carboxylate hydrochloride salt] |  |  |  |  | Off white colored | No Change | 99.6% | 0.32% | Off white colored powder | Crystalline pattern | 99.54% | 0.14% |  |  | AUC (0-inf) [1, 7]: 59.52 ng·h/mL; AUC (0-t) [1, 7]: 50.54 ng·h/mL; Cmax [1, 7]: 13.67 ng/mL; Tmax [1, 7]: 1.05 h; AUC (0-inf) ([1]; male, Wistar, rat, plasma, 30 mg/kg, Table 3a, fasted male Wistar rats, dose 30 mg/kg, mean, read-out: AUC (0-inf)): 158 ng·h/mL; AUC (0-t) ([1]; male, Wistar, rat, plasma, 30 mg/kg, Table 3a, fasted male Wistar rats, dose 30 mg/kg, mean, read-out: AUC (0-t)): 147 ng·h/mL; Cmax ([1]; male, Wistar, rat, plasma, 30 mg/kg, Table 3a, fasted male Wistar rats, dose 30 mg/kg, mean, read-out: Cmax): 94.4 ng/mL; Tmax ([1]; male, Wistar, rat, plasma, 30 mg/kg, Table 3a, fasted male Wistar rats, dose 30 mg/kg, mean, read-out: Tmax): 0.6 h; Vd ([1]; rat, plasma, Table 3a, fasted male Wistar rats, dose 30 mg/kg, mean, read-out: Vz): 1530 L; Intrinsic dissolution rate ([3]; pH 1.2 HCl, listed as HCl, hydrochloride salt): 6.6836 mg/min · cm^2; Intrinsic dissolution rate ([3]; pH 4.5 Acetate Buffer, listed as HCl, hydrochloride salt): 21.08 mg/min · cm^2; Intrinsic dissolution rate ([3]; pH 6.8 Phosphate Buffer, listed as HCl, hydrochloride salt): 20.262 mg/min · cm^2 |
| O=C(O[C@H]1CN2CCC1CC2)N1CCc2ccccc2[C@@H]1c1ccccc1 [Solifenacin Succinate, (+)-(1S,3′R)-quinuclidin-3′-yl 1-phenyl-1,2,3,4-tetrahydro-isoquinoline-2-carboxylate succinate salt, reference compound] |  |  |  |  |  |  |  |  |  |  |  |  |  |  | AUC (0-inf) [1, 8]: 76.69 ng·h/mL; AUC (0-t) [1, 8]: 60.09 ng·h/mL; Cmax [1, 8]: 23.72 ng/mL; Tmax [1, 8]: 2.67 h; Tmax (absorption, as stated in text) ([1]; text summary of Table 3b, fasted male Wistar rats, succinate salt): 6.67 h; Intrinsic dissolution rate ([3]; pH 1.2 HCl, succinate salt): 10.666 mg/min · cm^2; Intrinsic dissolution rate ([3]; pH 4.5 Acetate Buffer, succinate salt): 9.845 mg/min · cm^2; Intrinsic dissolution rate ([3]; pH 6.8 Phosphate Buffer, succinate salt): 11.002 mg/min · cm^2 |
| (+)-(1S,3′R)-quinuclidin-3′-yl 1-phenyl-1,2,3,4-tetrahydro-isoquinoline-2-carboxylate besylate salt [Solifenacin Besylate] | 49.27 ng·h/mL | 45.54 ng·h/mL | 12.84 ng/mL | 1.73 h |  |  |  |  |  |  |  |  | 0.36 h⁻¹ | 1.95 h |  |
| (+)-(1S,3′R)-quinuclidin-3′-yl 1-phenyl-1,2,3,4-tetrahydro-isoquinoline-2-carboxylate oxalate salt [Solifenacin Oxalate] | 78.78 ng·h/mL | 49.77 ng·h/mL | 9.10 ng/mL | 1.62 h | Off white colored | No Change | 99.36% | 0.33% | Off white colored powder | Crystalline pattern | 99.49% | 0.18% | 0.18 h⁻¹ | 6.19 h | AUC (0-inf) [1, 5]: 345.79 ng·h/mL; AUC (0-t) [1, 5]: 321.28 ng·h/mL; Cmax [1, 5]: 252.38 ng/mL; Kel [1, 5]: 0.26 h⁻¹; T1/2 [1, 5]: 4.76 h; Tmax [1, 5]: 0.37 h; higher plasma concentration (Bio available, Cmax) compared to Solifenacin succinate salt [1, 9]: ~10 fold; higher plasma exposure compared to Solifenacin succinate salt [1, 9]: 5 times; T1/2 value compared to the succinate salt ([1]; in words): higher; absorption / rate of absorption ([1]; in words): rapid absorption; Intrinsic dissolution rate ([3]; pH 1.2 HCl): 6.5822 mg/min · cm^2; Intrinsic dissolution rate ([3]; pH 4.5 Acetate Buffer): 6.5084 mg/min · cm^2; Intrinsic dissolution rate ([3]; pH 6.8 Phosphate Buffer): 4.9096 mg/min · cm^2 |
| Solifenacin phosphate | 57.63 ng·h/mL | 50.58 ng·h/mL | 12.63 ng/mL | 1.00 h |  |  |  |  |  |  |  |  | 0.29 h⁻¹ | 2.43 h |  |
